Literature values as cited in PubChem BioAssay AID1259409 (Chemical Carcinogenesis Research Information System (CCRIS), 2018).

System: rodent chemically induced tumor inhibition, incidence and multiplicity
Assay: CCRIS tumor inhibitor studies
Conditions: Carcinogen: 7,12-DIMETHYLBENZ[A]ANTHRACENE, 57-97-6, Dose [Inhibitor]: 0, Route [Inhibitor]: DERMAL, Species: MOUSE

For `CC1=C(/C=C/C(C)=C/C=C/C(C)=C/C(=O)O)C(C)(C)CCC1`, the “tumour outcome (control, treated, inhibition, significance)” value (2 NMOL IN 200 µL ACETONE APPLIED 30 MIN PRIOR TO EACH PROMOTER DOSE 2/WK FOR 25 WK BEGINNING 1 WK POST CARCINOGEN DOS, Strain/Sex: CD-1/FEMALE, Target Tissue: Type of Lesion: SKIN: PAPILLOMA, Dose [Carcinogen]: 200 NMOL IN 200 µL ACETONE ONCE, Promoter: 12-O-TETRADECANOYLPHORBOL-13-ACETATE, 16561-29-8) is listed as 90%, 83%, 8%, not calculated, the “tumour outcome (control, treated, inhibition, significance)” value (2 NMOL IN 200 µL ACETONE APPLIED 30 MIN PRIOR TO EACH PROMOTER DOSE 2/WK FOR 25 WK BEGINNING 1 WK POST CARCINOGEN DOS, Strain/Sex: CD-1/FEMALE, Target Tissue: Type of Lesion: SKIN: PAPILLOMA, Dose [Carcinogen]: 200 NMOL IN 200 µL ACETONE ONCE, Promoter: MIREX, 2385-85-5) is listed as 100%, 100%, 0%, not significant and the “tumour outcome (control, treated, inhibition, significance)” value (3 NMOL IN 0.1 ML ACETONE 2/WK APPLIED 40 MIN PRIOR TO EACH PROMOTER DOSE FOR 20 WK (STUDY DURATION: 21 WK), Strain/Sex: ICR/FEMALE, Target Tissue: Type of Lesion: SKIN: PAPILLOMA, Dose [Carcinogen]: 100 UG IN 0.1 ML ACETONE ONCE, Promoter: 12-0-TETRADECANOYLPHORBOL-13-ACETATE, 16561-29-8) is listed as 99%, 68%, 31%, p<0.01. The “tumour outcome (control, treated, inhibition, significance)” value (5 NMOL IN 200 µL ACETONE APPLIED 30 MIN PRIOR TO EACH PROMOTER DOSE 2/WK FOR 25 WK BEGINNING 1 WK POST CARCINOGEN DOS, Strain/Sex: CD-1/FEMALE, Target Tissue: Type of Lesion: SKIN: PAPILLOMA, Dose [Carcinogen]: 200 NMOL IN 200 µL ACETONE ONCE, Promoter: 12-O-TETRADECANOYLPHORBOL-13-ACETATE, 16561-29-8) was 90%, 76%, 16%, not calculated, the “tumour outcome (control, treated, inhibition, significance)” value (5 NMOL IN 200 µL ACETONE APPLIED 30 MIN PRIOR TO EACH PROMOTER DOSE 2/WK FOR 25 WK BEGINNING 1 WK POST CARCINOGEN DOS, Strain/Sex: CD-1/FEMALE, Target Tissue: Type of Lesion: SKIN: PAPILLOMA, Dose [Carcinogen]: 200 NMOL IN 200 µL ACETONE ONCE, Promoter: MIREX, 2385-85-5) was 100%, 100%, 0%, not significant and the “tumour outcome (control, treated, inhibition, significance)” value (10 UG IN 0.2 ML ACETONE 1/WK FOR 5 WK APPLIED 60 MIN PRIOR TO EACH PROMOTER DOSE BEGINNING 1 WK POST CARCINOGEN DOSE, Strain/Sex: SENCAR/FEMALE, Target Tissue: Type of Lesion: SKIN: PAPILLOMA, Dose [Carcinogen]: 20 UG IN 0.2 ML ACETONE ONCE, Promoter: 12-O-TETRADECANOYLPHORBOL-13-ACETATE, 16561-29-8) was 50%, 10%, 80%, p<0.0001. For the same compound, the “tumour outcome (control, treated, inhibition, significance)” value (10 UG IN 0.2 ML ACETONE 1/WK FOR 20 WK APPLIED 60 MIN PRIOR TO EACH PROMOTER DOSE BEGINNING 1 WK POST CARCINOGEN DOSE, Strain/Sex: SENCAR/FEMALE, Target Tissue: Type of Lesion: SKIN: PAPILLOMA, Dose [Carcinogen]: 20 UG IN 0.2 ML ACETONE ONCE, Promoter: 12-O-TETRADECANOYLPHORBOL-13-ACETATE, 16561-29-8) was 95%, 55%, 42%, p<0.05, the “tumour outcome (control, treated, inhibition, significance)” value (10 UG IN 0.2 ML ACETONE 2/WK FOR 19 WK BEGINNING 15 WK POST PROMOTION TREATMENT (STUDY DURATION: 49 WK), Strain/Sex: SENCAR/FEMALE, Target Tissue: Type of Lesion: SKIN: CARCINOMA, Dose [Carcinogen]: 20 UG IN 0.2 ML ACETONE ONCE, Promoter: 12-O-TETRADECANOYLPHORBOL-13-ACETATE, 16561-29-8) was 99%, 54%, 45%, p<0.01 and the “tumour outcome (control, treated, inhibition, significance)” value (10 UG IN 0.2 ML ACETONE 2/WK FOR 19 WK BEGINNING POST PROMOTION TREATMENT (STUDY DURATION: 49 WK), Strain/Sex: SENCAR/FEMALE, Target Tissue: Type of Lesion: SKIN: CARCINOMA, Dose [Carcinogen]: 20 UG IN 0.2 ML ACETONE ONCE, Promoter: 12-O-TETRADECANOYLPHORBOL-13-ACETATE, 16561-29-8) was 88%, 52%, 41%, p<0.01. The “tumour outcome (control, treated, inhibition, significance)” value (10 UG IN 0.2 ML ACETONE 2/WK FOR 19 WK BEGINNING POST PROMOTION TREATMENT (STUDY DURATION: 49 WK), Strain/Sex: SENCAR/FEMALE, Target Tissue: Type of Lesion: SKIN: CARCINOMA, Dose [Carcinogen]: 20 UG IN 0.2 ML ACETONE ONCE, Promoter: MEZEREIN, 34807-41-5) was 100%, 65%, 35%, p<0.01.
